Results taken from patent publication EP2949339A1, “Agonist of CD1c-restricted T cells and uses thereof” (Ospedale San Raffaele S.r.l., priority 2014, dated 2015).

What was measured:
[1] = system: CD1c self-reactive T cells; assay: T cell activation assay with lipid-pulsed CD1c+ APCs (GM-CSF and/or IFN-γ release, ELISA); assay type: cell-based, human; conditions: same T cells; data not shown
Protocol: T cell activation assays were performed by co-culturing the indicated numbers of target cells (5x10^4/well unless otherwise indicated) with T cells (5x10^4/well) in 200µl volume in duplicate or triplicate cultures. In some experiments, mouse anti-CD1c (L161, Abcam) or mouse IgG1 isotype control mAbs were added and incubated for 30 min prior to the addition of T cells. Supernatants were collected after 24-48 hours and cytokines released by T cells (GM-CSF and/or IFN-γ) were measured by ELISA. In assays using fractionated lipids, THP1-CD1c cells (5x10^4/well) were fixed with 0.05% glutaraldehyde for 20 s and used as APCs. Fold change in cytokine release was calculated using the following formula: GM-CSF release with lipid pulsed APC / GM-CSF release with un-pulsed APC. In some experiments, normal B cells purified from PBMCs (5x10^4/well) were used as APCs without prior fixation. APCs were pulsed with lipids for 4 hours at the indicated dilutions before addition of T cells.

[2] = system: CD1c self-reactive T cells; assay: sCD1c-plate-bound T cell activation assay; assay type: cell-based, human; conditions: CD1c self-reactive clones DN4.99, K34A27f; GM-CSF release; Fig. 1E, 3 C
Protocol: sCD1c-plate-bound assays were performed using MaxiSorp plates (Nunc) coated with anti-BirA mAb (Nowbakht et al., 2005) to capture sCD1c and were then incubated with lipids for 6 hours. The wells were extensively washed before addition of T cells.
Recombinant soluble human CD1c tagged with BirA peptide (sCD1c), was obtained and purified using techniques similar to those previously described (Garcia-Alles et al., 2006). The following primers were used to PCR amplify the extracellular domain of human CD1c: forward XhoI 5'- […] (SEQ ID No. 3) and reverse ClaI 5'-[…] (SEQ ID No. 4). sCD1c was purified from J558-transfected cell culture supernatants by affinity chromatography using anti-CD1c mAb (10C3, BD Pharmingen).

Substance | doses at which T cells were very weakly stimulated [1] | stimulation of T cells by lipid presented by plastic-bound sCD1c [2]
lysophosphatidic acid [LPA] | above 50 µg/ml | 
lysophosphatidylcholine [LPC] | above 50 µg/ml | 
lysophosphatidylethanolamine [LPE] | above 50 µg/ml | 
sulfatide |  | failed to stimulate
